What is called inhibition is the percentage by which the read-out fell short of the control. By pIC50 is commonly meant the negative decadic logarithm of the IC50, by convention in mol/L.

Experiment [1] deals with T1, human XIAP_BIR3 domain purified protein (Homo sapiens, UniProt P98170).
T1 construct: purchased R & D
As to the kind of experiment: XIAP binding inhibitory activity (HTRF, b-Smac ligand). The conditions noted are these: for inhibition at 3 µM: concentration of the test compound 3 μM, first symbol of cell, read-out: XIAP binding inhibition rate; for pIC50: second symbol of cell, read-out: XIAP binding inhibition IC50 value. On the procedure:
Human XIAP binding inhibitory activity was measured by the Homogeneous Time Resolved Fluorescence (HTRF) method with using commercially available human XIAP_BIR3 domain purified protein (R & D) and as a ligand a Smac N-terminal peptide (AVPIAQK (SEQ ID NO: 1)) (hereinafter referred to as “b-Smac”; Peptide Research Laboratories, Inc.) biotinylated at the C-terminus according to a conventional method.
The HTRF method will be described in detail below.
The test compound diluted with a reaction buffer (25 mM HEPES Buffer containing 100 mM NaCl, 0.1% BSA, and 0.1% triton X-100, pH 7.5) was added to a 384-well white shallow bottom plate (Greiner 784076) at 1 μL/well and flash centrifuged for 30 seconds. Subsequently, human XIAP_BIR3 domain purified protein was diluted with the reaction buffer to obtain a 90 nM sample diluent, and the resultant sample diluent was added to the above-mentioned white superficial plate at 4.5 μL/well and flash centrifuged for 30 seconds. Subsequently, b-Smac diluted to 90 nM with the reaction buffer was added to the above-mentioned white superficial plat at 4.5 μL/well and flash centrifuged for 30 seconds. A mixed solution of Anti-6 HIS-Cryptate (Eu^3+ Cryptate-conjugated mouse monoclonal antibody anti-6 Histidine; cisbio) and Streptavidin-XL^eat (Highgrade XL665-conjugated streptavidin; cisbio) both diluted 100-fold with HTRF detection buffer (cisbio) at a volume ratio of 1:1 was added to the above white superficial plate at 10 μL/well. After flash centrifuging the white shallow bottom plate for 30 seconds, the white shallow bottom plate was left at room temperature for 4 hours or more in the dark. The white superficial plate after being left was subjected to fluorescence intensity measurement (excitation wavelength: 320 nm, fluorescence wavelength: 665 nm and 615 nm) by EnVision (Perkin Elmer). The binding inhibition rate (%) was calculated based on the HTRF ratio in the presence of the test compound to the HTRF ratio in the absence of the test compound (fluorescence intensity at 665 nm/fluorescence intensity at 615 nm).
The XIAP binding inhibition rate (%) of test compounds was evaluated.
In general terms: TR-FRET usually uses a lanthanide donor and a delayed reading to cut background.

In the next experiment the target is T2, IRAK-M (Homo sapiens, UniProt Q9Y616).
T2 sequence (Q9Y616 1-596): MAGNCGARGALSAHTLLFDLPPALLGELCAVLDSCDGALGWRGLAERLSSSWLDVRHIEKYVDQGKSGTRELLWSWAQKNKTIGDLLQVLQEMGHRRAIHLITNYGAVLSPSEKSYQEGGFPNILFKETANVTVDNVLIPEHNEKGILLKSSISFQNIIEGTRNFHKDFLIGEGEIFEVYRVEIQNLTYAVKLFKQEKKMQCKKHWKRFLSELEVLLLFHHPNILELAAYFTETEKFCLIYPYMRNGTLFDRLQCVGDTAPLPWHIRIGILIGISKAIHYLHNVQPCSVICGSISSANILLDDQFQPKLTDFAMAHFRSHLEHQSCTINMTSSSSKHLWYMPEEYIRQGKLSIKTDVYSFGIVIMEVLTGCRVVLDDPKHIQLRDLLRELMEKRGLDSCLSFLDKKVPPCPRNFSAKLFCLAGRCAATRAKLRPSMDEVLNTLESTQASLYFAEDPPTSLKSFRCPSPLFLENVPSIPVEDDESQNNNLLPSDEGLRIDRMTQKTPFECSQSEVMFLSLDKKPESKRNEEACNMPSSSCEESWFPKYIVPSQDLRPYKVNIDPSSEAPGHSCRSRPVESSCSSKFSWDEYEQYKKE
Kind of experiment: IRAK-M binding inhibitory activity (KINOMEscan active site-dependent competitive assay). Also noted: purchased Eurofins Discover X. The conditions noted are these: for remaining binding at 1 µM: concentration of the test compound 1 μM, first symbol of cell, read-out: IRAK-M binding inhibition activity % Ctrl; for pIC50: second symbol of cell, read-out: IRAK-M binding inhibition IC50 value. The essentials: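 Readout given as % Ctrl, with DMSO as 100% and a control compound as 0%, scaling the test compound signal between them. Binding to human IRAK-M was assessed by KINOMEscan competition at the kinase active site.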

pIC50: −log10 of the molar value. Structures can show the parent of a compound that is named as a salt. A value given as a limit tells only on which side of the number the result lay.

T1 sequence (P98170 252-356 limits assumed): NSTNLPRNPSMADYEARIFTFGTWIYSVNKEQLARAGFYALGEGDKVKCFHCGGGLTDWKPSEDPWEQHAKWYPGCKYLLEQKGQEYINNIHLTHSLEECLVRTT

With `CN[C@@H](C)C(=O)N[C@H](C(=O)N1CCN(C(=O)c2c(OCCOCCOCCOc3cc(CN4CCC(Oc5ccnc6ccsc56)CC4)on3)c3cc(F)c(F)cc3n2C)CC1)C1CCCCC1` [Example 21, (S)-N-((S)-1-Cyclohexyl-2-(4-(5,6-difluoro-1-methyl-3-(2-(2-(2-((5-((4-(thieno[3,2-b]pyridin-7-yloxy)piperidin-1-yl)methyl)isoxazol-3-yl)oxy)ethoxy)ethoxy)ethoxy)-1H-indole-2-carbonyl)piperazin-1-yl)-2-oxoethyl)-2-(methylamino)propanamide hydrochloride], the inhibition at 3 µM in experiment [1] fell in the range of 25 to 50%. On IRAK-M, the remaining binding at 1 µM lay within 25 to 50%.
As for `CN[C@@H](C)C(=O)N[C@H](C(=O)N1CCN(C(=O)c2c(OCCOCCOc3cc(CN4CCC(Oc5ccnc6ccsc56)CC4)on3)c3cc(F)c(F)cc3n2C)CC1)C1CCCCC1` [Example 22, (S)-N-((S)-1-cyclohexyl-2-(4-(5,6-difluoro-1-methyl-3-(2-(2-((5-((4-(thieno[3,2-b]pyridin-7-yloxy)piperidin-1-yl)methyl)isoxazol-3-yl)oxy)ethoxy)ethoxy)-1H-indole-2-carbonyl)piperazin-1-yl)-2-oxoethyl)-2-(methylamino)propanamide], the inhibition at 3 µM in experiment [1] was in the range of 25 to 50%. For the same compound, the remaining binding at 1 µM on IRAK-M was in the range of 25 to 50%.
In the case of `CN[C@@H](C)C(=O)N[C@H](C(=O)N1CCN(C(=O)c2c(OCCOCCOCCOCCOc3cc(CN4CCC(Oc5ccnc6ccsc56)CC4)on3)c3cc(F)c(F)cc3n2C)CC1)C1CCCCC1` [Example 23, (S)-N-((S)-1-cyclohexyl-2-(4-(5,6-difluoro-1-methyl-3-(2-(2-(2-(2-((5-((4-(thieno[3,2-b]pyridin-7-yloxy)piperidin-1-yl)methyl)isoxazol-3-yl)oxy)ethoxy)ethoxy)ethoxy)ethoxy)-1H-indole-2-carbonyl)piperazin-1-yl)-2-oxoethyl)-2-(methylamino)propanamide], in experiment [1], the inhibition at 3 µM was in the range of 25 to 50%. Further, the remaining binding at 1 µM at IRAK-M lay in the range of 25 to 50%.
With `CN[C@@H](C)C(=O)N[C@H](C(=O)N1CCN(C(=O)c2cc3cc(F)c(F)cc3n2CC(=O)N2CCC[C@@H]2COc2cc(CN3CCC(Oc4ccnc5ccsc45)CC3)on2)CC1)C1CCCCC1` [Example 31, (S)-N-((S)-1-cyclohexyl-2-(4-(5,6-difluoro-1-(2-oxo-2-((R)-2-(((5-((4-(thieno[3,2-b]pyridin-7-yloxy)piperidin-1-yl)methyl)isoxazol-3-yl)oxy)methyl)pyrrolidin-1-yl)ethyl)-1H-indole-2-carbonyl)piperazin-1-yl)-2-oxoethyl)-2-(methylamino)propanamide], in experiment [1], the inhibition at 3 µM fell in the range of 25 to 50%. Further, on IRAK-M, the remaining binding at 1 µM is 25 to 50%.
`CN[C@@H](C)C(=O)N[C@H](C(=O)N1CCN(C(=O)c2cc3cc(F)ccc3n2CC(=O)N2C[C@@H](O)C[C@H]2COc2cc(CN3CCC(Oc4ccnc5ccsc45)CC3)on2)[C@@H](C)C1)C1CCCCC1` [Example 42, (S)-N-((S)-1-cyclohexyl-2-((S)-4-(5-fluoro-1-(2-((2S,4S)-4-hydroxy-2-(((5-((4-(thieno[3,2-b]pyridin-7-yloxy)piperidin-1-yl)methyl)isoxazol-3-yl)oxy)methyl)pyrrolidin-1-yl)-2-oxoethyl)-1H-indole-2-carbonyl)-3-methylpiperazin-1-yl)-2-oxoethyl)-2-(methylamino)propanamide]: in experiment [1], the inhibition at 3 µM is greater than 25%. For the same compound, the pIC50 at IRAK-M is 6.52 to 7.00.
In the case of `CN[C@@H](C)C(=O)N[C@H](C(=O)N1CCN(C(=O)c2cc3cc(F)c(F)cc3n2CC(=O)N2CCOC[C@@H]2COc2cc(CN3CCC(Oc4ccnc5ccsc45)CC3)on2)CC1)C1CCCCC1` [Example 45, (S)-N-((S)-1-cyclohexyl-2-(4-(5,6-difluoro-1-(2-oxo-2-((R)-3-(((5-((4-(thieno[3,2-b]pyridin-7-yloxy)piperidin-1-yl)methyl)isoxazol-3-yl)oxy)methyl)morpholino)ethyl)-1H-indole-2-carbonyl)piperazin-1-yl)-2-oxoethyl)-2-(methylamino)propanamide], in experiment [1], the negative-log IC50 (pIC50) is 4.52 to 5.52. For the same compound, on IRAK-M, the remaining binding at 1 µM was 25 to 50%.
As to `CN[C@@H](C)C(=O)N[C@H](C(=O)N1CCN(C(=O)c2cc3cc(F)ccc3n2CC(=O)N2CCOC[C@@H]2COc2cc(CN3CCC(Oc4ccnc5ccsc45)CC3)on2)[C@@H](C)C1)C1CCCCC1` [Example 46, (S)-N-((S)-1-cyclohexyl-2-((S)-4-(5-fluoro-1-(2-oxo-2-((R)-3-(((5-((4-(thieno[3,2-b]pyridin-7-yloxy)piperidin-1-yl)methyl)isoxazol-3-yl)oxy)methyl)morpholino)ethyl)-1H-indole-2-carbonyl)-3-methylpiperazin-1-yl)-2-oxoethyl)-2-(methylamino)propanamide], the inhibition at 3 µM in experiment [1] was greater than 25%. Also, the pIC50 at IRAK-M is 6.52 to 7.00.
On the same counts, the results for `CN[C@@H](C)C(=O)N[C@H](C(=O)N1CCN(C(=O)c2cc3cc(F)ccc3n2CC(=O)N2CCOC[C@H]2COc2cc(CN3CCC(Oc4ccnc5ccsc45)CC3)on2)[C@@H](C)C1)C1CCCCC1` [Example 47, (S)-N-((S)-1-cyclohexyl-2-((S)-4-(5-fluoro-1-(2-oxo-2-((S)-3-(((5-((4-(thieno[3,2-b]pyridin-7-yloxy)piperidin-1-yl)methyl)isoxazol-3-yl)oxy)methyl)morpholino)ethyl)-1H-indole-2-carbonyl)-3-methylpiperazin-1-yl)-2-oxoethyl)-2-(methylamino)propanamide] are greater than 25% and 5.52 to 6.00.
With `CN[C@@H](C)C(=O)N[C@H](C(=O)N1CCN(C(=O)c2cc3c(OCCOCCOCCOc4cc(CN5CCC(Oc6ccnc7ccsc67)CC5)on4)c(F)c(F)cc3n2C)CC1)C1CCCCC1` [Example 52, (S)-N-((S)-1-cyclohexyl-2-(4-(5,6-difluoro-1-methyl-4-(2-(2-(2-((5-((4-(thieno[3,2-b]pyridin-7-yloxy)piperidin-1-yl)methyl)isoxazol-3-yl)oxy)ethoxy)ethoxy)ethoxy)-1H-indole-2-carbonyl)piperazin-1-yl)-2-oxoethyl)-2-(methylamino)propanamide], the pIC50 in experiment [1] is 5.52 to 6.52. Also, at IRAK-M, the remaining binding at 1 µM was less than 25%.
The matching figures for `CN[C@@H](C)C(=O)N[C@H](C(=O)N1CCN(C(=O)c2ccc3c(c2)cc(C)n3CCOCCOCCOCCOc2cc(CN3CCC(Oc4ccnc5ccsc45)CC3)on2)CC1)C1CCCCC1` [Example 53, (S)-N-((S)-1-cyclohexyl-2-(4-(2-methyl-1-(2-(2-(2-(2-((5-((4-(thieno[3,2-b]pyridin-7-yloxy)piperidin-1-yl)methyl)isoxazol-3-yl)oxy)ethoxy)ethoxy)ethoxy)ethyl)-1H-indole-5-carbonyl)piperazin-1-yl)-2-oxoethyl)-2-(methylamino)propanamide]: 5.52 to 6.52 and less than 25%.
On the same counts, the results for `CN[C@@H](C)C(=O)N[C@H](C(=O)N1CCN(C(=O)c2ccc3c(c2)cc(C)n3CCOCCOc2cc(CN3CCC(Oc4ccnc5ccsc45)CC3)on2)CC1)C1CCCCC1` [Example 54, (S)-N-((S)-1-cyclohexyl-2-(4-(2-methyl-1-(2-(2-((5-((4-(thieno[3,2-b]pyridin-7-yloxy)piperidin-1-yl)methyl)isoxazol-3-yl)oxy)ethoxy)ethyl)-1H-indole-5-carbonyl)piperazin-1-yl)-2-oxoethyl)-2-(methylamino)propanamide] are greater than 6.52 and 25 to 50%.

The record behind these values is patent US20220402935A1, “HETEROCYCLIC COMPOUND” (FIMECS, INC., priority 2019, published 2022).
